Key:
[1] = target: T1, OTUD7B (Homo sapiens, UniProt Q6GQQ9); assay: Immunoblot of known OTUD7B substrates (mTORC2, APC/Cdh1); format: cell-based; conditions: MHH-ES-1 or EWS894 cells, 12 hrs (FIG. 5E)
T1 construct: endogenous in cells; host or cells: MHH-ES-1, EWS894
Protocol: (§1) Cells were lysed in EBC buffer (50 mM Tris pH 7.5, 120 mM NaCl, 0.5% NP-40) or Triton X-100 buffer (50 mM Tris pH 7.5, 150 mM NaCl, 1% Triton X-100) supplemented with protease inhibitors (Complete Mini, Roche) and phosphatase inhibitors (phosphatase inhibitor cocktail set I and II, Calbiochem). The protein concentrations of whole cell lysates were measured by NanoDrop OneC using the Bio-Rad protein assay reagent as described previously. Equal amounts of whole cell lysates were resolved by SDS-PAGE and immunoblotted with indicated antibodies. For immunoprecipitations analysis, unless specified, 1000 μg lysates were incubated with the indicated antibody (1-2 μg) for 3-4 hr at 4° C. followed by 1 hr incubation with 10 μL Protein A magnetic beads (New England Biolabs). Or 1000 μg lysates containing tagged molecules were incubated with agarose beads coupled antibodies for the specific tag for 3-4 hr at 4° C. For endogenous IPs, incubation of cell lysates with antibodies was extended to overnight. The recovered immuno-complexes were washed five times with NETN buffer (20 mM Tris, pH 8.0, 100 mM NaCl, 1 mM EDTA and 0.5% NP-40) before being resolved by SDS-PAGE and immunoblotted with indicated antibodies.

[2] = system: Jurkat cells; assay: Cell proliferation of Jurkat cells; format: cell-based, human
Protocol: (§2) 2,000 indicated cells were seeded in each well of 96-well plates for MTT assays to monitor cell viability at indicated time periods using a method adapted from https://www.thermofisher.com/us/en/home/references/protocols/cell-culture/mtt-assay-protocol/vybrant-mtt-cell-proliferation-assay-kit.html. Briefly, at indicated time points post-cell seeding, 10 μL MTT solution was added into each well and incubated in the culture incubator (37° C. with 5% CO2) for 4 hrs. Then medium was removed and 100 μL DMSO was added into each well to dissolve the formazan crystal and incubated for 10 min at 37° C. After thorough mixing, absorbance at 540 nm was measured using the BioTek Cytation 5 Cell Imaging reader.

[3] = system: EWS-FLI1; assay: Immunoblot of EWS-FLI1 protein abundance in cells; format: cell-based, human
[4] = target: T2, OTUD7A (Homo sapiens, UniProt Q8TE49); assay: Immunoblot of OTUD7A protein levels in Ewing cells; format: cell-based; conditions: A673 and SK-N-MC cells, 10 μM, 12 hrs
T2 construct: endogenous in cells; host or cells: A673 and SK-N-MC
T2 sequence (Q8TE49 whole entry): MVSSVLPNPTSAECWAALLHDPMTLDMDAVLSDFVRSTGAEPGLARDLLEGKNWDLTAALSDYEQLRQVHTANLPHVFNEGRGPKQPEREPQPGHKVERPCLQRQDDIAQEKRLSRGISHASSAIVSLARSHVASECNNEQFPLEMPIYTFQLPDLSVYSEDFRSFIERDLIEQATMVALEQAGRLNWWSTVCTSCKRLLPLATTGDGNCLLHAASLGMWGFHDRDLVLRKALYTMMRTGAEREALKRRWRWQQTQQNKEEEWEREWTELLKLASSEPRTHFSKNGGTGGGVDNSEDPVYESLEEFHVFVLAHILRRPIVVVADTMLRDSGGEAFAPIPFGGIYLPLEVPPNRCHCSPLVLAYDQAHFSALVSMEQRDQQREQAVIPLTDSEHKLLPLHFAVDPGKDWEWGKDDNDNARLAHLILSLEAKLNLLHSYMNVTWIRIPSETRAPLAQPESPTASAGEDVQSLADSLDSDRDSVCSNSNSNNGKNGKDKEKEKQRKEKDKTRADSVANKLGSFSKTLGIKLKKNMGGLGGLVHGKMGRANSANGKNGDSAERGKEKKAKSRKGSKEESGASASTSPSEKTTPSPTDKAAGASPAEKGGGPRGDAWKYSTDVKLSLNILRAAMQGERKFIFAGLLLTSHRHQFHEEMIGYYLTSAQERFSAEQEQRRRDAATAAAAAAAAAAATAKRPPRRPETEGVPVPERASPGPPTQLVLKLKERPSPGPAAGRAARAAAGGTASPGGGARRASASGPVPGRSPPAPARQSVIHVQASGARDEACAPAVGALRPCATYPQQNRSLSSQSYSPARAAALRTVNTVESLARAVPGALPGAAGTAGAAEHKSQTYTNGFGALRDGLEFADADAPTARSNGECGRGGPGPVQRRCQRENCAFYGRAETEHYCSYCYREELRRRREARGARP
Protocol: as §1
Each compound was dissolved in DMSO with a concentration of 10 mM. […]

[5] = system: EWS-FLI1 target genes (NKX2.2, PSPH, LOX, TGFBR2); assay: RT-PCR of EWS-FLI1 downstream target genes; format: cell-based, human
Protocol: Cells were isolated by dissociation with 0.05% Trypsin, followed by media quenching. The cells were spun down at 300×rcf for 5 minutes. The media was aspirated, the pellet was suspended with 1×PBS, and then the cells were spun down again. The PBS was aspirated. RNA extraction was performed with an RNA extraction kit (BioBasic BS584). The final elution step was done with 50 μL of RNAse-free water. The […] with the NanoDrop OneC (Thermo Fisher Scientific). Three biological replicates were performed for RNA extraction. Quartile analysis was done to exclude outliers and significance was determined by one-way ANOVA tests.

[6] = system: EWS894 cells; assay: Cell viability (MTT) assay, EWS894; format: cell-based, human; conditions: EWS894, 3-day treatment
Protocol: as §2

[7] = system: MHH-ES-1 cells; assay: Cell viability (MTT) assay, MHH-ES-1; format: cell-based, human; conditions: MHH-ES-1, 3-day treatment
Protocol: as §2

[8] = system: HUVEC cells; assay: Cell viability (MTT) assay, HUVEC; format: cell-based, human; conditions: 72 hrs (FIG. 5S)
Protocol: as §2

[9] = target: T3, His-tagged OTUD7A OTU domain (aa183-449) (Homo sapiens, UniProt Q8TE49); assay: Isothermal titration calorimetry (ITC) of 7Ai with OTUD7A OTU domain; conditions: bacterially produced His-tagged OTUD7A OTU domain (aa183-449), read-out: binding affinity of 7Ai in vitro (ITC)
T3 construct: the bacterially produced His-tagged OTUD7A OTU domain (aa183-449) was purified; made in house; host or cells: E. coli BL21 (pET28a vector)
T3 sequence (Q8TE49 183-449): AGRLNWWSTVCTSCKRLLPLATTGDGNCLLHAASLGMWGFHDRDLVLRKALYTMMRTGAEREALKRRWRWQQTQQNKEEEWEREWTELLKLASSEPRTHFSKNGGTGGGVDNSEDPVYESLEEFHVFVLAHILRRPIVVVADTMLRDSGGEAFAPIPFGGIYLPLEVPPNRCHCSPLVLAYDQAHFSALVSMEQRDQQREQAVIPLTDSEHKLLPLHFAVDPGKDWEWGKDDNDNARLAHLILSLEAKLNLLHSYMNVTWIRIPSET
Protocol: ITC measurements were performed using a MicroCal auto-iTC200 calorimeter (MicroCal, LLC) as described previously. Briefly, His-tagged OTU domain of OTUD7A proteins were purified using BL21 strain upon induced by 0.3 mM IPTG when OD600 around 0.6 overnight at 16° C. Then purified human His-tagged OTU domain of OTUD7A was dialyzed against 50 mM HEPES buffer (pH 7.2) with 100 mM NaCl for overnight at 4° C. The concentration of the protein was determined by band intensity in a gel-cod staining SDS-PAGE gel. The ITC assay was carried out at 37 °C. The dialyzed His-OTUD7A-OTU proteins were diluted to 40 μM in the dialysis buffer containing 4% DMSO. Then, 400 μM 7Ai, dissolved in the same dialysis buffer with 4% DMSO (50 mM HEPES buffer (pH 7.2) with 100 mM NaCl) was injected into 0.4 mL of His-OTUD7A-OTU protein in the chamber for every 180 s. The dissociation constants and thermodynamic parameters were determined by using the embedded software package Origin7 (Microcal).

[10] = system: FLI1; assay: Immunoblot of FLI1 proteins in normal control cells; format: cell-based, human; conditions: HUVEC and FF cells, doses of 7Ai for 3 days
Protocol: as §1

[11] = system: A673 cells; assay: 2D colony formation assay, A673; format: cell-based, human; conditions: A673, 2-week treatment
Protocol: Indicated cells were seeded into 6-well plates (300 or 600 cells/well) or 6 cm dishes (500 or 1,000 cells/dish) and cultured in 37° C. incubator with 5% C02 for ˜14 days (as indicated in figure legends) until formation of visible colonies. Colonies were washed with 1×PBS and fixed with 10% acetic acid/10% methanol for 30 min, stained with 20% acidic acid/10% Methanol with 0.1% crystal violet until colonies were visibly stained. Colonies were then washed by tap water and air-dried. Colony numbers were manually counted. At least two independent experiments were performed to generate the error bars.

T1 sequence (Q6GQQ9 whole entry): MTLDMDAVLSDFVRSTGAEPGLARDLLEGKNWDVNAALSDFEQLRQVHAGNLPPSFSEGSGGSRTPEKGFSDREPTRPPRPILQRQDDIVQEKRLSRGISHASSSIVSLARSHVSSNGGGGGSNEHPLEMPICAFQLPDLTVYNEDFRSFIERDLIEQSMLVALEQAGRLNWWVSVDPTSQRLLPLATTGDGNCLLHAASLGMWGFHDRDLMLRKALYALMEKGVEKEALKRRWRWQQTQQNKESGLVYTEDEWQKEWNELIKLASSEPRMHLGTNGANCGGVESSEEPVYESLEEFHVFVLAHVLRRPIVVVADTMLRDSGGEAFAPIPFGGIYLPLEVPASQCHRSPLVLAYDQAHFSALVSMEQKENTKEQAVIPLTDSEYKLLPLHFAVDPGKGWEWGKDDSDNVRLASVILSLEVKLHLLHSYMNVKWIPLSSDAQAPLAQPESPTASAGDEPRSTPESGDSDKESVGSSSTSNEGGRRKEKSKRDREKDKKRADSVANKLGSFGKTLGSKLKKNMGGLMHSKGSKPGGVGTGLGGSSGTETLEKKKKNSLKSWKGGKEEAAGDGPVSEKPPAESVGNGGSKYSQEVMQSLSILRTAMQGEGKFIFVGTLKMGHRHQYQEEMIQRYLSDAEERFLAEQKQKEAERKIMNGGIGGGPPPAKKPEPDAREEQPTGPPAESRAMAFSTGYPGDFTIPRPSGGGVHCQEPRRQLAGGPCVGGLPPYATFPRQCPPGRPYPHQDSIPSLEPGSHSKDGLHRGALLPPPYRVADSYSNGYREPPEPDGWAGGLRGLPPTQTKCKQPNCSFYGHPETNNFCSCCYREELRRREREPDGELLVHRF

For `Cn1nccc1-c1cc(-c2ccnn2C)n2nc(C(=O)Nc3cnn(Cc4c(Cl)cccc4Cl)c3)cc2n1` [7Ai], the “OTUD7B activities (known OTUD7B substrates mTORC2 and APC/Cdh1)” value [1] was “did not significantly affect OTUD7B activities”, the cell proliferation [2] was “reduced cell proliferation of Jurkat cells” and the EWS-FLI1 protein abundance ([3]; A673-teton-shOTUD7A cells) was “reduced EWS-FLI1 protein abundance in A673-teton-shOTUD7A”. The EWS-FLI1 protein abundance ([3]; A673 and MHH-ES-1 cells, doses of 7Ai for 3 days) was “efficiently reduced EWS-FLI1 protein abundance in both Ewing sarcoma cells”, the EWS-FLI1 protein levels ([3]; A673 and SK-N-MC cells, 10 μM, 12 hrs) was “reduced EWS-FLI1 protein levels in both Ewing cells” and the “EWS-FLI1 protein levels, dose dependence” value ([3]; A673 cells, indicated doses, 12 hrs (FIG. 5B)) was “reduced EWS-FLI1 protein levels in a dose-dependent manner”. The EWS-FLI1 protein expression ([3]; MHH-ES-1, EWS894 (FIG. 5E, 12 hrs), SK-N-MC and EWS502 cells) was “efficiently reduced EWS-FLI1 protein expression”, the EWS-FLI1 protein abundance ([3]; parental A673 cells, 10 μM, 12 hrs (FIG. 5D)) was “reduced EWS-FLI1 protein abundance in parental A673” and the OTUD7A protein levels [4] was “without affecting OTUD7A protein levels”. For the same molecule, the “transcription of EWS-FLI1 target genes NKX2.2 and PSPH” value ([5]; A673 cells (FIGS. 5K-5L)) was “reduced transcription of EWS-FLI1 target genes”, the “transcription of genes negatively regulated by EWS-FLI1 (LOX and TGFBR2)” value ([5]; A673 cells (FIGS. 5M-5N)) was “increased transcription of genes negatively regulated by EWS-FLI1” and the “proliferation (cell viability)” value [6] was “reduced proliferation”. The “proliferation (cell viability)” value [7] was “reduced MHH-ES-1 proliferation”, the “proliferation (cell viability)” value [8] was “neglectable effects” and the Kd [9] was about 1100 nM. For the same molecule, the FLI1 proteins [10] was “minimal effects on FLI1 proteins” and the colony formation ability [11] was “reduced colony formation ability”.
